{
  "source": "patent US9980943B2",
  "about": "“Methods of treating muscular dystrophy” (BOARD OF REGENTS OF THE NEVADA SYSTEM OF HIGHER EDUCATION, …, priority 2013, dated 2018)",
  "assay_type_in_all_cases": "cell-based, mouse",
  "key": {"[1]": {"tested_on": "β-galactosidase in CMV-LacZ C2C12 myotubes", "test": "CMV-LacZ secondary screen in C2C12 myotubes (β-Gal stabilizing assay)", "conditions": "for CMV-LACZ in Myotubes, value relative to DMSO: SU9516 analogs, C2C12 CMV-LacZ, N=2; for CMV-LACZ in Myotubes, signal relative to DMSO: C2C12 CMV-LacZ myotubes, fold relative to DMSO", "method_in_brief": "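Stable CMV-LacZ C2C12 clone; six-point curve 0.5–40 μM; duplicates.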"}, "[2]": {"tested_on": "α7 integrin (LacZ reporter in α7+/LacZ myotubes)", "test": "Myotube α7 integrin FDG assay (Burkin assay in myotubes, 96-well)", "conditions": "for Burkin Assay in Myotubes, value relative to DMSO: SU9516 analogs, 96-well, N=3-6"}, "[3]": {"tested_on": "α7 integrin (LacZ reporter in α7βgal+/− myoblasts)", "test": "Myoblast α7+/LacZ integrin FDG assay (Burkin assay in myoblasts, 96-well)", "conditions": "96-well; for Burkin Assay in Myoblasts, value relative to DMSO: SU9516 analogs, N=3-6; for Burkin Assay in Myoblasts, signal relative to DMSO: α7+/LacZ myoblasts"}, "[4]": {"tested_on": "β-galactosidase in CMV-LacZ C2C12 myoblasts", "test": "CMV-LacZ secondary screen in C2C12 myoblasts (β-Gal stabilizing assay)", "conditions": "for CMV-LACZ in Myoblasts, value relative to DMSO: SU9516 analogs, C2C12 CMV-LacZ, N=2; for CMV-LACZ in Myoblasts (β-galactosidase activity relative to DMSO): CMV-LacZ C2C12 myoblasts", "method_in_brief": "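β-Gal level was the read-out, measured in a clonal C2C12 line expressing LacZ from a CMV promoter. Dose-response curves used six concentrations, 0.5 μM up to 40 μM, with duplicate points.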"}},
  "data": [
    {"compound": "Cc1[nH]c(C=C2C(=O)Nc3ccccc32)c(C)c1CCC(=O)O", "note": "[NCGC00241113-01]", "values": [
      {"measurement": "CMV-LACZ in Myotubes, value relative to DMSO", "setting": "[1]; 0.5 uM", "result": 0.8627},
      {"measurement": "CMV-LACZ in Myotubes, value relative to DMSO", "setting": "[1]; 1 uM", "result": 1.3227},
      {"measurement": "CMV-LACZ in Myotubes, value relative to DMSO", "setting": "[1]; 5 uM", "result": 0.9410},
      {"measurement": "CMV-LACZ in Myotubes, value relative to DMSO", "setting": "[1]; 10 uM", "result": 1.0724},
      {"measurement": "CMV-LACZ in Myotubes, value relative to DMSO", "setting": "[1]; 20 uM", "result": 0.9790},
      {"measurement": "CMV-LACZ in Myotubes, value relative to DMSO", "setting": "[1]; 40 uM", "result": 0.9520},
      {"measurement": "Burkin Assay in Myotubes, value relative to DMSO", "setting": "[2]; 0.5 uM", "result": 1.078},
      {"measurement": "Burkin Assay in Myotubes, value relative to DMSO", "setting": "[2]; 1 uM", "result": 1.105},
      {"measurement": "Burkin Assay in Myotubes, value relative to DMSO", "setting": "[2]; 5 uM", "result": 0.8489},
      {"measurement": "Burkin Assay in Myotubes, value relative to DMSO", "setting": "[2]; 10 uM", "result": 0.7678},
      {"measurement": "Burkin Assay in Myotubes, value relative to DMSO", "setting": "[2]; 20 uM", "result": 0.7458},
      {"measurement": "Burkin Assay in Myotubes, value relative to DMSO", "setting": "[2]; 40 uM", "result": 0.6312},
      {"measurement": "Burkin Assay in Myoblasts, value relative to DMSO", "setting": "[3]; 0.5 uM", "result": 1.011},
      {"measurement": "Burkin Assay in Myoblasts, value relative to DMSO", "setting": "[3]; 1 uM", "result": 1.057},
      {"measurement": "Burkin Assay in Myoblasts, value relative to DMSO", "setting": "[3]; 5 uM", "result": 0.9062},
      {"measurement": "Burkin Assay in Myoblasts, value relative to DMSO", "setting": "[3]; 10 uM", "result": 0.8662},
      {"measurement": "Burkin Assay in Myoblasts, value relative to DMSO", "setting": "[3]; 20 uM", "result": 0.9594},
      {"measurement": "Burkin Assay in Myoblasts, value relative to DMSO", "setting": "[3]; 40 uM", "result": 0.9168},
      {"measurement": "CMV-LACZ in Myoblasts, value relative to DMSO", "setting": "[4]; 0.5 uM", "result": 1.4142},
      {"measurement": "CMV-LACZ in Myoblasts, value relative to DMSO", "setting": "[4]; 5 uM", "result": 1.1634},
      {"measurement": "CMV-LACZ in Myoblasts, value relative to DMSO", "setting": "[4]; 10 uM", "result": 1.1352},
      {"measurement": "CMV-LACZ in Myoblasts, value relative to DMSO", "setting": "[4]; 20 uM", "result": 2.7827},
      {"measurement": "CMV-LACZ in Myoblasts, value relative to DMSO", "setting": "[4]; 40 uM", "result": 3.3097}
    ]},
    {"compound": "COc1ccc(NC(=O)C2(N(C(=O)Cn3nnnc3N)c3ccc(OC)cc3)CCCCC2)cc1", "note": "[MLS001030268-01]", "values": [
      {"measurement": "CMV-LACZ in Myotubes, signal relative to DMSO", "setting": "[1]; 0.5 uM", "result": 0.8830},
      {"measurement": "CMV-LACZ in Myotubes, signal relative to DMSO", "setting": "[1]; 1 uM", "result": 1.1711},
      {"measurement": "CMV-LACZ in Myotubes, signal relative to DMSO", "setting": "[1]; 5 uM", "result": 1.1318},
      {"measurement": "CMV-LACZ in Myotubes, signal relative to DMSO", "setting": "[1]; 10 uM", "result": 1.1128},
      {"measurement": "CMV-LACZ in Myotubes, signal relative to DMSO", "setting": "[1]; 20 uM", "result": 0.9365},
      {"measurement": "CMV-LACZ in Myotubes, signal relative to DMSO", "setting": "[1]; 40 uM", "result": 0.9506},
      {"measurement": "Burkin Assay in Myotubes, α7 integrin LacZ reporter signal relative to DMSO", "setting": "[2]; 0.5 uM", "result": 1.076},
      {"measurement": "Burkin Assay in Myotubes, α7 integrin LacZ reporter signal relative to DMSO", "setting": "[2]; 1 uM", "result": 1.161},
      {"measurement": "Burkin Assay in Myotubes, α7 integrin LacZ reporter signal relative to DMSO", "setting": "[2]; 5 uM", "result": 1.213},
      {"measurement": "Burkin Assay in Myotubes, α7 integrin LacZ reporter signal relative to DMSO", "setting": "[2]; 10 uM", "result": 0.9249},
      {"measurement": "Burkin Assay in Myotubes, α7 integrin LacZ reporter signal relative to DMSO", "setting": "[2]; 20 uM", "result": 0.6277},
      {"measurement": "Burkin Assay in Myotubes, α7 integrin LacZ reporter signal relative to DMSO", "setting": "[2]; 40 uM", "result": 0.7606},
      {"measurement": "Burkin Assay in Myoblasts, signal relative to DMSO", "setting": "[3]; 0.5 uM", "result": 1.239},
      {"measurement": "Burkin Assay in Myoblasts, signal relative to DMSO", "setting": "[3]; 1 uM", "result": 1.143},
      {"measurement": "Burkin Assay in Myoblasts, signal relative to DMSO", "setting": "[3]; 5 uM", "result": 1.49},
      {"measurement": "Burkin Assay in Myoblasts, signal relative to DMSO", "setting": "[3]; 10 uM", "result": 0.8716},
      {"measurement": "Burkin Assay in Myoblasts, signal relative to DMSO", "setting": "[3]; 20 uM", "result": 0.726},
      {"measurement": "Burkin Assay in Myoblasts, signal relative to DMSO", "setting": "[3]; 40 uM", "result": 0.6069},
      {"measurement": "CMV-LACZ in Myoblasts (β-galactosidase activity relative to DMSO)", "setting": "[4]; 0.5 uM", "result": 1.0809},
      {"measurement": "CMV-LACZ in Myoblasts (β-galactosidase activity relative to DMSO)", "setting": "[4]; 1 uM", "result": 1.1550},
      {"measurement": "CMV-LACZ in Myoblasts (β-galactosidase activity relative to DMSO)", "setting": "[4]; 5 uM", "result": 1.1347},
      {"measurement": "CMV-LACZ in Myoblasts (β-galactosidase activity relative to DMSO)", "setting": "[4]; 10 uM", "result": 1.1787},
      {"measurement": "CMV-LACZ in Myoblasts (β-galactosidase activity relative to DMSO)", "setting": "[4]; 20 uM", "result": 0.7467},
      {"measurement": "CMV-LACZ in Myoblasts (β-galactosidase activity relative to DMSO)", "setting": "[4]; 40 uM", "result": 0.5556}
    ]},
    {"compound": "CC(C)c1ccc(OC(=O)c2cccc(S(=O)(=O)N3CCN(C)CC3)c2)cc1", "note": "[MLS001130011-01]", "values": [
      {"measurement": "CMV-LACZ in Myotubes, signal relative to DMSO", "setting": "[1]; 0.5 uM", "result": 0.9358},
      {"measurement": "CMV-LACZ in Myotubes, signal relative to DMSO", "setting": "[1]; 1 uM", "result": 1.0211},
      {"measurement": "CMV-LACZ in Myotubes, signal relative to DMSO", "setting": "[1]; 5 uM", "result": 0.9057},
      {"measurement": "CMV-LACZ in Myotubes, signal relative to DMSO", "setting": "[1]; 10 uM", "result": 0.8998},
      {"measurement": "CMV-LACZ in Myotubes, signal relative to DMSO", "setting": "[1]; 20 uM", "result": 0.8367},
      {"measurement": "CMV-LACZ in Myotubes, signal relative to DMSO", "setting": "[1]; 40 uM", "result": 1.0156},
      {"measurement": "Burkin Assay in Myotubes, α7 integrin LacZ reporter signal relative to DMSO", "setting": "[2]; 0.5 uM", "result": 0.9553},
      {"measurement": "Burkin Assay in Myotubes, α7 integrin LacZ reporter signal relative to DMSO", "setting": "[2]; 1 uM", "result": 0.9952},
      {"measurement": "Burkin Assay in Myotubes, α7 integrin LacZ reporter signal relative to DMSO", "setting": "[2]; 5 uM", "result": 0.8834},
      {"measurement": "Burkin Assay in Myotubes, α7 integrin LacZ reporter signal relative to DMSO", "setting": "[2]; 10 uM", "result": 1.0699},
      {"measurement": "Burkin Assay in Myotubes, α7 integrin LacZ reporter signal relative to DMSO", "setting": "[2]; 20 uM", "result": 0.7883},
      {"measurement": "Burkin Assay in Myotubes, α7 integrin LacZ reporter signal relative to DMSO", "setting": "[2]; 40 uM", "result": 0.7512},
      {"measurement": "Burkin Assay in Myoblasts, signal relative to DMSO", "setting": "[3]; 0.5 uM", "result": 0.9715},
      {"measurement": "Burkin Assay in Myoblasts, signal relative to DMSO", "setting": "[3]; 1 uM", "result": 0.8947},
      {"measurement": "Burkin Assay in Myoblasts, signal relative to DMSO", "setting": "[3]; 5 uM", "result": 1.374},
      {"measurement": "Burkin Assay in Myoblasts, signal relative to DMSO", "setting": "[3]; 10 uM", "result": 0.9762},
      {"measurement": "Burkin Assay in Myoblasts, signal relative to DMSO", "setting": "[3]; 20 uM", "result": 1.037},
      {"measurement": "Burkin Assay in Myoblasts, signal relative to DMSO", "setting": "[3]; 40 uM", "result": 0.9155},
      {"measurement": "CMV-LACZ in Myoblasts (β-galactosidase activity relative to DMSO)", "setting": "[4]; 0.5 uM", "result": 1.1702},
      {"measurement": "CMV-LACZ in Myoblasts (β-galactosidase activity relative to DMSO)", "setting": "[4]; 1 uM", "result": 0.7695},
      {"measurement": "CMV-LACZ in Myoblasts (β-galactosidase activity relative to DMSO)", "setting": "[4]; 5 uM", "result": 1.0011},
      {"measurement": "CMV-LACZ in Myoblasts (β-galactosidase activity relative to DMSO)", "setting": "[4]; 10 uM", "result": 1.1138},
      {"measurement": "CMV-LACZ in Myoblasts (β-galactosidase activity relative to DMSO)", "setting": "[4]; 20 uM", "result": 0.7837},
      {"measurement": "CMV-LACZ in Myoblasts (β-galactosidase activity relative to DMSO)", "setting": "[4]; 40 uM", "result": 0.8311}
    ]}
  ]
}
